Among the data in ChEMBL document CHEMBL1139062, “Synthesis and biological evaluation of new conformationally biased integrin ligands based on a tetrahydroazoninone scaffold” (Bioorg Med Chem Lett, 2007) are inhibition values, retold here.

Assay type in all cases: protein-complex assay
In assay [1] the target is T1, Integrin alpha-V/beta-3 (Homo sapiens) (UniProt P05106+P06756). Nature of the assay: Displacement of [125I]echistatin from integrin alpha-V-beta-3 receptor at 1 uM.
Assay [2] addresses T1, Integrin alpha-V/beta-3 (Homo sapiens). Description: Displacement of [125I]echistatin from integrin alpha-V-beta-3 receptor at 10 uM. Background: In a radioligand displacement assay an active substance lowers the binding of a labelled ligand.
For assay [3] the target is unchanged. Nature of the assay: Displacement of [125I]echistatin from integrin alpha-V-beta-3 receptor at 0.01 uM.
Assay [4] deals with T2, Integrin alpha-V/beta-5 (Homo sapiens) (UniProt P06756+P18084). Nature of the assay: Displacement of [125I]echistatin from integrin alpha-V-beta-5 receptor at […].
Assay [5] addresses T2, Integrin alpha-V/beta-5 (Homo sapiens). Description: Displacement of [125I]echistatin from integrin alpha-V-beta-5 receptor at 1000 uM.
Assay [6] has as its target T1, Integrin alpha-V/beta-3 (Homo sapiens). Description: Displacement of [125I]echistatin from integrin alpha-V-beta-3 receptor at 0.1 uM.
The target is the same in assay [7]. Nature of the assay: Displacement of [125I]echistatin from integrin alpha-V-beta-3 receptor at 0.001 uM.

As usually defined, the inhibition is the drop in the measured response relative to a control, in per cent. Higher therefore signals a strong effect. With `CC12CC/C=C\CC(NC1=O)C(=O)N[C@H](CCCNC(=N)N)C(=O)NCC(=O)N[C@@H](CC(=O)O)C(=O)N2` (stereo in doubt; 3a), the inhibition was found to be 30% in assay [1] and 62% in assay [2].
`CC12CC/C=C\CC(NC1=O)C(=O)N[C@H](CCCNC(=N)N)C(=O)NCC(=O)N[C@@H](CC(=O)O)C(=O)N2Cc1ccccc1` (stereo in doubt; 2b): the inhibition in assay [3] was found to be 15%; in assay [1], 50%; in assay [4], 15%; in assay [5], 13%; in assay [6], 53%; in assay [7] it was 5%. Also, the inhibition in assay [2] stood at 52%.
Molecule `N=C(N)NCCC[C@@H]1NC(=O)CNC(=O)[C@@H](CC(=O)O)N[C@H]2CCC[C@H]3CC[C@H](C1=O)N3C2=O` came in with an inhibition in assay [7] of 85%.
In the case of `CC12CC/C=C\CC(NC1=O)C(=O)N[C@H](CCCNC(=N)N)C(=O)NCC(=O)N[C@@H](CC(=O)O)C(=O)N2Cc1ccccc1` (stereo in doubt; 2a), the inhibition in assay [1] came out at 49%; in assay [4], 17%; in assay [5], 13%; in assay [2], 48%.
For the molecule `CC12CC/C=C\CC(NC1=O)C(=O)N[C@H](CCCNC(=N)N)C(=O)NCC(=O)N[C@@H](CC(=O)O)C(=O)N2` (stereo in doubt; 3b), the inhibition in assay [1] was 30%; in assay [2], 62%.
